The values below come from ChEMBL document CHEMBL5725428, “15-aryl prostaglandins as EP4 agonists, and methods of use thereof” (2017).

Experiment [1] addresses Prostaglandin E2 receptor EP2 subtype (Homo sapiens, UniProt P43116). The experiment can be described thus: (§1) cAMP Assay: A 384-well drug plate was prepared to contain 6 test compounds, PGE2 and cAMP in 16 serial dilutions in triplicate, using a Biomek station. HEK-EBNA cells expressing a target PG receptor subtype (EP2 or EP4) were suspended in a stimulation buffer (HBSS, 0.1% BSA, 0.5 mM IBMX and 5 mM HEPES, pH 7.4) in a density of 10^4 cells/5 microliters. The reaction was initiated by mixing 5 microliters drug dilutions with 5 microliters of HEK-EBNA cells in a well, carried out for 30 min at room temperature, and followed by the addition of 5 microliters anti-cAMP acceptor beads in the control buffer with Tween-20 (25 mM NaCl, 0.03% Tween-20, 5 mM HEPES, pH 7.4). After 30 min in the dark at room temperature, the mixtures were incubated with 15 microliters biotinylated-cAMP/streptavidin donor beads in Lysis/Detection buffer (0.1% BSA, 0.3% Tween-20 and 5 mM HEPES, pH 7.4) for 45 min at room temperature. Fluorescence changes were read using a Fusion-alpha microplate reader. In kind it is cell-based.

Experiment [2] concerns the target Prostaglandin E2 receptor EP4 subtype (Homo sapiens, UniProt P35408). The experiment is described as §1. It counts as cell-based.

Sequence of Prostaglandin E2 receptor EP4 subtype (P35408 whole entry): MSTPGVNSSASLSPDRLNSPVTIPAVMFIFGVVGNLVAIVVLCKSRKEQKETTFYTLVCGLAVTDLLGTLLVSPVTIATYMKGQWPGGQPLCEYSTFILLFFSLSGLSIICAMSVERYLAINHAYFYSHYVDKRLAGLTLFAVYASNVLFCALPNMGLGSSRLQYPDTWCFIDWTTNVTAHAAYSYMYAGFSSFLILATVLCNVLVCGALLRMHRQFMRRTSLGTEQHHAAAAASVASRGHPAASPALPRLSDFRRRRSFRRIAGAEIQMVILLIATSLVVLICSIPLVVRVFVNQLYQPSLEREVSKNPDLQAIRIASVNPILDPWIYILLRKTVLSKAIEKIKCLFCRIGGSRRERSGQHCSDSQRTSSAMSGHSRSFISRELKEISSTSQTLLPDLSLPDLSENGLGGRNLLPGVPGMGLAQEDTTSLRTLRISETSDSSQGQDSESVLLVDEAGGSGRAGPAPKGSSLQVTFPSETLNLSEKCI
Sequence of Prostaglandin E2 receptor EP2 subtype (P43116 whole entry): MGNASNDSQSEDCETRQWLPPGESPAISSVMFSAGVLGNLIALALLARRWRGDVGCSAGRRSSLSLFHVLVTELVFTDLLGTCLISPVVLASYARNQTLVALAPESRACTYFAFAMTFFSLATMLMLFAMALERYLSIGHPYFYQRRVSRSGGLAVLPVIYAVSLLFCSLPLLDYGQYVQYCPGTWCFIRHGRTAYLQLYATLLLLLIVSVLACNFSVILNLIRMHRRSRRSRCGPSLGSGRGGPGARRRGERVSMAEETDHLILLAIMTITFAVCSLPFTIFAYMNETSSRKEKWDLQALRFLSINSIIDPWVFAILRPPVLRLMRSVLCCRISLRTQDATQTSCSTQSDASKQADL

For the compound `Cc1cc(Cl)ccc1-c1cc(C(O)/C=C/[C@H]2CCC(=O)N2CCCc2ccc(C(=O)O)cc2)ccc1F` (single isomer, unassigned), the inhibition constant (Ki) in experiment [1] came to 7.49 µM; in experiment [2] it was 1080 nM.
